pIC50: −log10 of the molar value.
Tests used:
human CRTH2 = biological target: T1, human CRTH2 (Homo sapiens, UniProt Q9Y5Y4); assay: Measurement of Ca2+ mobilization in the human CRTH2-transfected L1.2 cell line (Assay 1); assay type: cell-based; settings: PGD2-induced Ca2+ mobilization in CRTH2-transfected L1.2 cells; compounds as yielded by solid phase synthesis, purity about 40 to 90%; read-out: Activity class
T1 construct: expressed in transfected cells; host or cells: L1.2 cells, pEAK expression vector, puromycin-selected
T1 sequence (Q9Y5Y4 1-395): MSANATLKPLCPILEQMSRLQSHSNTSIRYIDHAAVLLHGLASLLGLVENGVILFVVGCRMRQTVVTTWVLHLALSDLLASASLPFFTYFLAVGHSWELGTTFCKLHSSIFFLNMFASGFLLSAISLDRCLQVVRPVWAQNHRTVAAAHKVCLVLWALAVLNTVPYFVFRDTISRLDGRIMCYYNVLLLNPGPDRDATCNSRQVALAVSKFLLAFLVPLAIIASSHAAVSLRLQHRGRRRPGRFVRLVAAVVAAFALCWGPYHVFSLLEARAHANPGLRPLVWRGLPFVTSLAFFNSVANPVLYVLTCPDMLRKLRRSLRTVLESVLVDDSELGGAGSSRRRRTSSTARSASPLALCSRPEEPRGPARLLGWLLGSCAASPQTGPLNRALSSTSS
Experimental: Human CRTH2 cDNA was amplified from human eosinophil cDNA with gene specific primers containing restriction sites for cloning into pEAK vector (Edge Bio Systems). The human CRTH2 cDNA was cloned into the mammalian expression vector pEAK. This expression plasmid (40 μg) was transfected into L1.2 cells, at a cell density of 1×10^7 cells/500 μl, by using electroporation apparatus (Gene Pulser II, BioRad) at 250V/1,000 μF. One day after the transfection, puromycin (1 μg/ml, Sigma) was added into the cell culture plates. Two weeks after the transfection, grown cells were picked up for further growth.
[Measurement of Ca^2+ Mobilization in the Human CRTH2-Transfected L1.2 Cell Line] (Assay 1)
Ca^2+ loading buffer was prepared by mixing 5 μl of Fluo-3AM (2 mM in DMSO, final 1 μM, Molecular Probes) and 10 μl of pluronic F-127 (Molecular Probes) and diluting the resulting mixture in 10 ml of Ca^2+ assay buffer (20 mM HEPES pH 7.6, 0.1% BSA, 1 mM probenecid, Hanks' solution). The CRTH2 transfected cells which were prepared in Example 1 were washed with PBS, resuspended in Ca^2+ loading buffer at 1×10^7 cells/ml, and incubated for 60 min at room temperature. After incubation, cells were washed and resuspended in Ca^2+ assay buffer, then dispensed into transparent-bottom 96-well plates (#3631, Costar) at 2×10^5 cells/well. Cells were incubated with various concentrations of test compound for 5 minutes at room temperature. The emitted 480 nm fluorescence was measured on FDSS6000, a Ca^2+-measurement apparatus (Hamamatsu Photonics, Hamamatsu, Japan).
Assay results in Assay 1 are shown in Examples and tables of the Examples below. The data corresponds to the compounds as yielded by solid phase synthesis and thus to levels of purity of about 40 to 90%. For practical reasons, the compounds are grouped in four classes of activity as follows: IC50=A(< or =)10 nM<B(< or =)100 nM<C(< or =)500 nM<D

pIC50 (human CRTH2) | melting point | Structure (SMILES)
> 8.00 | > 94 °C | CN(C)c1nc(Cc2ccc(NC(=O)c3ccc(F)c(F)c3)cc2)nc(Cl)c1CC(=O)O [Example 1-45]
> 8.00 | > 99 °C | CN(C)c1nc(Cc2ccc(NC(=O)c3cc(Cl)cc(Cl)c3)cc2)nc(Cl)c1CC(=O)O [Example 1-46]
> 8.00 | > 108 °C | CN(C)c1nc(Cc2ccc(NC(=O)c3cccc(Cl)c3)cc2)nc(Cl)c1CC(=O)O [Example 1-47]
> 8.00 | > 75 °C | COc1cccc(C(=O)Nc2ccc(Cc3nc(Cl)c(CC(=O)O)c(N(C)C)n3)cc2)c1 [Example 1-48]
7.00 to 8.00 | 186 °C | CN(C)c1nc(Cc2cccc(NC(=O)c3ccc4ccccc4c3)c2)nc(Cl)c1CC(=O)O [Example 1-49]
< 6.30 | 295 °C | CN(C)c1nc(Cc2ccccc2NC(=O)c2ccc3ccccc3c2)nc(Cl)c1CC(=O)O [Example 1-50]
> 8.00 | 104 °C | CN(C)c1nc(Cc2ccc(NC(=O)C3CCC(C(C)(C)C)CC3)cc2)nc(Cl)c1CC(=O)O (stereo not shown) [Example 1-51]
< 6.30 | 176 °C | N=C(N)Nc1ccc(C(=O)Nc2ccc(Cc3nc(Cl)c(CC(=O)O)c(N4CCCC4)n3)cc2)cc1 [Example 1-52]
7.00 to 8.00 | 134 °C | O=C(O)Cc1c(Cl)nc(Cc2ccc(NC(=O)c3ccc([N+](=O)[O-])cc3)cc2)nc1N1CCCC1 [Example 1-53]
7.00 to 8.00 | 189 °C | CC(=O)Nc1ccc(C(=O)Nc2ccc(Cc3nc(Cl)c(CC(=O)O)c(N4CCCC4)n3)cc2)cc1 [Example 1-54]
> 8.00 | 160 °C | O=C(O)Cc1c(Cl)nc(Cc2ccc(NC(=O)c3ccc(Oc4ccccc4)cc3)cc2)nc1N1CCCC1 [Example 1-55]
> 8.00 | 156 °C | CC(C)Oc1ccc(C(=O)Nc2ccc(Cc3nc(Cl)c(CC(=O)O)c(N4CCCC4)n3)cc2)cc1 [Example 1-56]
> 8.00 | 217 °C | O=C(O)Cc1c(Cl)nc(Cc2ccc(NC(=O)c3ccc(-n4cccc4)cc3)cc2)nc1N1CCCC1 [Example 1-57]
> 8.00 | 118 °C | COc1ccc(C(=O)Nc2ccc(Cc3nc(Cl)c(CC(=O)O)c(N4CCCC4)n3)cc2)cc1[N+](=O)[O-] [Example 1-58]
> 8.00 | 115 °C | COc1c(C)cc(C(=O)Nc2ccc(Cc3nc(Cl)c(CC(=O)O)c(N4CCCC4)n3)cc2)cc1C [Example 1-59]
> 8.00 | 120 °C | O=C(O)Cc1c(Cl)nc(Cc2ccc(NC(=O)/C=C/c3ccccc3)cc2)nc1N1CCCC1 [Example 1-60]
> 8.00 | 129 °C | O=C(O)Cc1c(Cl)nc(Cc2ccc(NC(=O)c3ccc(Cl)c(Cl)c3)cc2)nc1N1CCCC1 [Example 1-61]
> 8.00 | > 176 °C | CN(CC(=O)NC1CCCC1)c1nc(Cc2ccc(NC(=O)c3ccc4ccccc4c3)cc2)nc(Cl)c1CC(=O)O [Example 1-62]
> 8.00 | 173 °C | O=C(O)Cc1c(Cl)nc(Cc2ccc(NC(=O)c3ccc(Cl)cc3)cc2)nc1N1CCCC1 [Example 1-63]
> 8.00 | 162 °C | O=C(O)Cc1c(Cl)nc(Cc2ccc(NC(=O)c3ccc(C(F)(F)F)cc3)cc2)nc1N1CCCC1 [Example 1-64]
> 8.00 | 188 to 190 °C | O=C(O)Cc1c(Cl)nc(Cc2ccc(NC(=O)/C=C/c3ccc(Cl)cc3)cc2)nc1N1CCCC1 [Example 1-65]
> 8.00 | 140 °C | CN(CCO)c1nc(Cc2ccc(NC(=O)c3ccc4ccccc4c3)cc2)nc(Cl)c1CC(=O)O [Example 1-66]
> 8.00 | > 120 °C | CN(C)c1nc(Cc2ccc(NC(=O)[C@@H]3CCc4ccccc4O3)cc2)nc(Cl)c1CC(=O)O [Example 1-67]
> 8.00 | > 199 °C | CN(C)c1nc(Cc2ccc(NC(=O)/C=C/c3ccc(C(F)(F)F)cc3)cc2)nc(Cl)c1CC(=O)O [Example 1-68]

pIC50 (human CRTH2) | melting point | Structure (SMILES)
> 8.00 | 111 °C | COc1ccc(C(=O)Nc2ccc(Cc3ncc(CC(=O)O)c(N(C)C)n3)cc2)cc1 [Example 2-7]
> 8.00 | 140 °C | CN(C)c1nc(Cc2ccc(NC(=O)c3ccc(Cl)c(Cl)c3)cc2)ncc1CC(=O)O [Example 2-8]
7.00 to 8.00 | 136 to 144 °C | CN(C)c1nc(Cc2ccc(NC(=O)c3ccc4ccccc4n3)cc2)ncc1CC(=O)O [Example 2-9]
> 8.00 | 135 to 140 °C | CN(C)c1nc(Cc2ccc(NC(=O)/C=C/c3ccccc3)cc2)ncc1CC(=O)O [Example 2-10]
> 8.00 | 136 to 140 °C | CN(C)c1nc(Cc2ccc(NC(=O)/C=C/c3ccc(Cl)cc3)cc2)ncc1CC(=O)O [Example 2-11]
6.30 to 7.00 | 106 to 110 °C | COc1ccc(C(=O)Nc2ccc(Cc3ncc(CC(=O)O)c(N(C)C)n3)cc2)cc1OC [Example 2-12]
> 8.00 | 149 to 153 °C | CN(C)c1nc(Cc2ccc(NC(=O)c3ccc(C(F)(F)F)cc3)cc2)ncc1CC(=O)O [Example 2-13]
7.00 to 8.00 | 111 to 113 °C | CN(C)c1nc(Cc2ccc(NC(=O)c3cccc(Cl)c3)cc2)ncc1CC(=O)O [Example 2-15]
> 8.00 | 137 to 140 °C | CC(c1ccc(NC(=O)c2ccc(Cl)c(Cl)c2)cc1)c1ncc(CC(=O)O)c(N(C)C)n1 (stereo not shown) [Example 2-21]
> 8.00 | 151 to 154 °C | CC(c1ccc(NC(=O)c2ccc(C(F)(F)F)cc2)cc1)c1ncc(CC(=O)O)c(N(C)C)n1 (stereo not shown) [Example 2-22]
> 8.00 | 150 to 153 °C | CC(c1ccc(NC(=O)/C=C/c2ccccc2)cc1)c1ncc(CC(=O)O)c(N(C)C)n1 (stereo not shown) [Example 2-23]
7.00 to 8.00 | 120 to 123 °C | CC(c1ccc(NC(=O)c2ccc3ccccc3n2)cc1)c1ncc(CC(=O)O)c(N(C)C)n1 (stereo not shown) [Example 2-24]
> 8.00 | 131 to 134 °C | CC(c1ccc(NC(=O)c2ccc(Cl)cc2)cc1)c1ncc(CC(=O)O)c(N(C)C)n1 (stereo not shown) [Example 2-25]
> 8.00 | 114 to 117 °C | CC(c1ccc(NC(=O)c2ccc(F)cc2)cc1)c1ncc(CC(=O)O)c(N(C)C)n1 (stereo not shown) [Example 2-26]
> 8.00 | 221 to 224 °C (dec.) | O=C(O)Cc1cnc(Cc2ccc(NC(=O)c3ccc4ccccc4n3)cc2)nc1N1CCCC1 [Example 2-27]
> 8.00 | 151 to 153 °C | O=C(O)Cc1cnc(Cc2ccc(NC(=O)c3ccc(Cl)cc3)cc2)nc1N1CCCC1 [Example 2-28]
> 8.00 | 143 to 145 °C | O=C(O)Cc1cnc(Cc2ccc(NC(=O)c3ccc(F)cc3)cc2)nc1N1CCCC1 [Example 2-29]
> 8.00 | 156 to 158 °C (dec.) | O=C(O)Cc1cnc(Cc2ccc(NC(=O)c3ccc(C(F)(F)F)cc3)cc2)nc1N1CCCC1 [Example 2-30]
> 8.00 | 150 to 151 °C | O=C(O)Cc1cnc(Cc2ccc(NC(=O)c3ccc4ccccc4c3)cc2)nc1N1CCCC1 [Example 2-31]
7.00 to 8.00 | 148 to 150 °C | CC(C)CC(=O)Nc1ccc(Cc2ncc(CC(=O)[O-])c(N3CCCC3)n2)cc1.[Na+] [Example 2-32]
6.30 to 7.00 | 145 to 148 °C (dec.) | O=C(O)Cc1cnc(Cc2ccc(NC(=O)CC3CC3)cc2)nc1N1CCCC1 [Example 2-33]
< 6.30 | 102 to 105 °C | COCC(=O)Nc1ccc(Cc2ncc(CC(=O)O)c(N3CCCC3)n2)cc1 [Example 2-34]
7.00 to 8.00 | 147 to 150 °C | CC(C)(C)CC(=O)Nc1ccc(Cc2ncc(CC(=O)O)c(N3CCCC3)n2)cc1 [Example 2-35]

— patent US7960393B2, “Pyrimidine derivatives useful for the treatment of diseases mediated by CRTH2” (Actimis Pharmaceuticals, Inc., priority 2002, dated 2011)
